“Also recorded” adds a separate entry of the source. Starred links: 1 amine or outer side, 2 acyl side, 3 side chain; linkers in the order of their positions; H or OH if unused. Non-standard residues stand in square brackets, D forms with d. Residues, ends and D or L forms follow the SMILES beside them. *: point of attachment. X1 = CC(C)C[C@H](NC(=O)N(Cc1ccccc1)C[C@@H](O)[C@H](Cc1ccccc1)N*)C(=O)N[C@H](C(N)=O)C(C)C; X2 = CC(C)[C@H](NC(=O)[C@H](C)NC(=O)N(Cc1ccccc1)C[C@@H](O)[C@H](Cc1ccccc1)N*)C(N)=O; NH(CH2)8CO = O=C(CCCCCCCCN[*:1])[*:2]; Boc = CC(C)(C)OC(=O)*; Aib = CC(C)(N)C(=O)O; Ava = NCCCCC(=O)O

Assay [1] concerns the target presenilin-1 (PS1) N-terminal fragment (NTF) of γ-secretase (Homo sapiens, UniProt P49768). Particulars: solubilized lysates from γ-secretase-expressing human embryonic kidney 293 cells.
The target in assay [2] is T1, γ-secretase (Homo sapiens, UniProt P49768). As to the kind of experiment: Enzyme inhibition kinetics. It is filed as biochemical.
The target of assay [3] is T1, γ-secretase. As to the kind of experiment: Cross-competition kinetic experiment between two inhibitors. It is filed as biochemical. Particulars: for cross-competition with HPI 2 for binding: second inhibitor HPI 2 (docking site); for cross-competition with TSA 17 for binding: second inhibitor TSA 17 (active site).
The next assay addresses purified γ-secretase (Homo sapiens, UniProt P49768). As to the kind of experiment: Purified enzyme assay: inhibition of γ-secretase. The format is biochemical.

`CC[C@H](C)[C@H](NC(=O)[C@@H](NC(=O)[C@@H](NC(=O)C(C)(C)NC(=O)CNC(=O)[C@@H](NC(=O)OC(C)(C)C)C(C)C)C(C)C)C(C)C)C(=O)NC(C)(C)C(=O)N[C@@H](Cc1ccccc1)C(=O)N[C@H](C(=O)NC(C)(C)C(=O)NCCCCCCCCC(=O)N[C@H](C(=O)N[C@@H](Cc1ccccc1)[C@H](O)CN(Cc1ccccc1)C(=O)N[C@@H](CC(C)C)C(=O)N[C@H](C(N)=O)C(C)C)C(C)C)C(C)C` [Compound 6, Boc-Val-Gly-Aib-Val-Val-Ile-Aib-Phe-Val-Aib-NH(CH2)8CO-Val-Phe-ψ-Phe-Leu-Val-NH2] (Boc-VG[Aib]VVI[Aib]FV[Aib][NH(CH2)8CO]V-X1): in assay [1], the “labelling of PS1 NTF by active-site-directed photoprobe TSA-Bpa-Bt” value is “Decreased photolabelling; also recorded: decreased labelling” and the “labelling of PS1 NTF by docking-site-directed photoprobe HPI-Bpa-Bt” value is reported as “Decreased photolabelling; also recorded: decreased labelling”. The “type of inhibition (enzyme inhibition kinetics)” value at γ-secretase [2] is given as “noncompetitive inhibition”. Besides, at γ-secretase [3], the “cross-competition with HPI 2 for binding” value is on record as “competed” and the “cross-competition with TSA 17 for binding” value is reported as “competed”. Also, at γ-secretase [3] (listed as HPI-TSA 6), the “cross-competition with HPI 2 for binding” value is “competes” and the “cross-competition with TSA 17 for binding” value was “competes”.

As for `CC[C@H](C)[C@H](NC(=O)[C@@H](NC(=O)[C@@H](NC(=O)C(C)(C)NC(=O)CNC(=O)[C@@H](NC(=O)OC(C)(C)C)C(C)C)C(C)C)C(C)C)C(=O)NC(C)(C)C(=O)N[C@@H](Cc1ccccc1)C(=O)N[C@H](C(=O)NC(C)(C)C(=O)NCCCCC(=O)N[C@H](C(=O)N[C@@H](Cc1ccccc1)[C@H](O)CN(Cc1ccccc1)C(=O)N[C@@H](CC(C)C)C(=O)N[C@H](C(N)=O)C(C)C)C(C)C)C(C)C` [Compound 5, Boc-Val-Gly-Aib-Val-Val-Ile-Aib-Phe-Val-Aib-NH(CH2)4CO-Val-Phe-ψ-Phe-Leu-Val-NH2] (Boc-VG[Aib]VVI[Aib]FV[Aib][Ava]V-X1), the “potency compared to TSA 1 or HPI 2 (fold increase)” value on purified γ-secretase (relative to IC50 of TSA 1 or HPI 2) was 4-to-6 fold.

For `CC[C@H](C)[C@H](NC(=O)[C@H](NC(=O)[C@H](NC(=O)C(C)(C)NC(=O)CNC(=O)[C@@H](NC(=O)OC(C)(C)C)C(C)C)C(C)C)C(C)C)C(=O)NC(C)(C)C(=O)N[C@@H](Cc1ccccc1)C(=O)N[C@H](C(=O)NC(C)(C)C(=O)NCCCCCCCCC(=O)N[C@H](C(=O)N[C@@H](Cc1ccccc1)[C@H](O)CN(Cc1ccccc1)C(=O)N[C@@H](CC(C)C)C(=O)N[C@H](C(N)=O)C(C)C)C(C)C)C(C)C` [Compound 9, Boc-Val-Gly-Aib-^DVal-^D Val-Ile-Aib-Phe-Val-Aib-NH(CH2)8CO-Val-Phe-ψ-Phe-Leu-Val-NH2] (Boc-VG[Aib][dV][dV]I[Aib]FV[Aib][NH(CH2)8CO]V-X1), the “reduction of inhibitory potency relative to 6” value at purified γ-secretase (relative to HPI-TSA 6) is reported as “decreased nearly eight-fold”.

Take `CC[C@H](C)[C@H](NC(=O)[C@@H](NC(=O)[C@@H](NC(=O)C(C)(C)NC(=O)CNC(=O)[C@@H](NC(=O)OC(C)(C)C)C(C)C)C(C)C)C(C)C)C(=O)NC(C)(C)C(=O)N[C@@H](Cc1ccccc1)C(=O)N[C@H](C(=O)NC(C)(C)C(=O)NCCCCCCCCC(=O)N[C@H](C(=O)N[C@@H](Cc1ccccc1)[C@H](O)CN(Cc1ccccc1)C(=O)N[C@@H](C)C(=O)N[C@H](C(N)=O)C(C)C)C(C)C)C(C)C` [Compound 16] (Boc-VG[Aib]VVI[Aib]FV[Aib][NH(CH2)8CO]V-X2; N-terminus and C-terminus assumed): in assay [1], the “labelling of PS1 NTF by active-site-directed photoprobe TSA-Bpa-Bt” value is recorded as “Decreased photolabelling; also recorded: decreased labelling” and the “labelling of PS1 NTF by docking-site-directed photoprobe HPI-Bpa-Bt” value is given as “Decreased photolabelling; also recorded: decreased labelling”. Besides, the “type of inhibition (enzyme inhibition kinetics)” value at γ-secretase [2] is reported as “noncompetitive inhibition”.

Values taken from paper PMC7359870 (Journal of the American Chemical Society, 2020).
